These molecules were tested against T1, human URAT1 (Homo sapiens, UniProt Q96S37) (assay: Test for inhibition of uric acid transport using human URAT1-expressing cells). Details: HEK 293 cells expressing human URAT1; 14C-labeled uric acid 25 μM; uptake 37° C. for 5 min.
T1 construct: Full-length cDNA of human URAT1 (hURAT1)
T1 sequence (Q96S37 1-553): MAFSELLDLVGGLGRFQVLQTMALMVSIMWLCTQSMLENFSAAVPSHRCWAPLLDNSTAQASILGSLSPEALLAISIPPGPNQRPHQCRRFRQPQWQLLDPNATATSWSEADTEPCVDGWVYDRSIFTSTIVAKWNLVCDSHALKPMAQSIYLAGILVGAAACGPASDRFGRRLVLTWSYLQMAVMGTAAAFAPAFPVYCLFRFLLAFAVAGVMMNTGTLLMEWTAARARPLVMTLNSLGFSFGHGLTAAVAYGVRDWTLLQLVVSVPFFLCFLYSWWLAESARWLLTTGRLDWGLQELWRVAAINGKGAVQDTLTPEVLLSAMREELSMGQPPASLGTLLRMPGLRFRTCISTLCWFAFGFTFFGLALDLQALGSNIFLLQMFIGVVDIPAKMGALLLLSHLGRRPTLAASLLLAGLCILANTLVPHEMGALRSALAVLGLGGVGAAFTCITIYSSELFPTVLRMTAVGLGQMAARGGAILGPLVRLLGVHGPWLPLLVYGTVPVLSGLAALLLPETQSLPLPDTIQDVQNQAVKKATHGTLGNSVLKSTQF
Type: cell-based
Procedure, shortened: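 IC50 values reflect inhibition of ¹⁴C-uric acid uptake (25 μM final, 5 min, 37 °C) by compound. Cells were HEK293 stably expressing full-length human URAT1, preincubated in Na-gluconate-substituted HBSS. Radioactivity in lysates was expressed relative to DMSO control as 100%.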
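Also: three stars up to 0.2 µM two stars 0.2-2 µM one star 2-20 µM.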

SMILES	Inhibitory Activity (IC50 of uric acid transport inhibition)
Cc1cncc(-c2ccc(C(=O)NS(=O)(=O)C3CC3)n2Cc2cc(Cl)ccc2Cl)c1 [Compound B32, N-(cyclopropylsulfonyl)-1-(2,5-dichlorobenzyl)-2-(5-methylpyridin-3-yl)-1H-pyrrole-5-carboxamide]	* * *
Cc1nc(-c2cncc(Cl)c2)n(Cc2csc3cccc(Cl)c23)c1C(=O)O [Compound A142, 1-((4-chlorobenzo[b]thiophen-3-yl)methyl)-2-(5-chloropyridin-3-yl)-4-methyl-1H-imidazole-5-carboxylic acid]	* * *
CC(C)c1nc(-c2cncc(Cl)c2)n(Cc2cccc3ccsc23)c1C(=O)O [Compound A235, 1-(benzo[b]thiophen-7-ylmethyl)-2-(5-chloropyridin-3-yl)-4-isopropyl-1H-imidazole-5-carboxylic acid]	* * *
CS(=O)(=O)NC(=O)c1ccc(-c2cncc(Cl)c2)n1Cc1cc(Cl)ccc1Cl [Compound B29, 2-(5-chloropyridin-3-yl)-1-(2,5-dichlorobenzyl)-N-(methylsulfonyl)-1H-pyrrole-5-carboxamide]	* * *
Cc1cncc(-c2nc(C)c(C(=O)O)n2Cc2cc(C)ccc2C)c1 [Compound A180, 1-(2,5-dimethylbenzyl)-4-methyl-2-(5-methylpyridin-3-yl)-1H-imidazole-5-carboxylic acid]	* * *
Cc1ncccc1Oc1nc(C)c(C(=O)O)n1Cc1cc(Cl)ccc1Cl [Compound A252, 1-(2,5-dichlorobenzyl)-4-methyl-2-((2-methylpyridin-3-yl)oxy)-1H-imidazole-5-carboxylic acid]	* * *
O=C(O)c1c(C2CC2)nc(-c2cncc(F)c2)n1Cc1cc(Cl)ccc1Cl [Compound A155, 4-cyclopropyl-1-(2,5-dichlorobenzyl)-2-(5-fluoropyridin-3-yl)-1H-imidazole-5-carboxylic acid]	* * *
O=C(O)c1c(C(F)(F)F)nc(-c2cccnc2)n1Cc1csc2cccc(Cl)c12 [Compound A27, 1-((4-chlorobenzo[b]thiophen-3-yl)methyl)-2-(pyridin-3-yl)-4-(trifluoromethyl)-1H-imidazole-5-carboxylic acid]	* *
Cc1nc(-c2cncc(OCC3CCCCC3)c2)n(Cc2cc(Cl)ccc2Cl)c1C(=O)O [Compound A189, 2-(5-(cyclohexylmethoxy)pyridin-3-yl)-1-(2,5-dichlorobenzyl)-4-methyl-1H-imidazole-5-carboxylic acid]	* *
CCC(O)(CC)c1nc(-c2cncc(Cl)c2)n(Cc2cc(Cl)ccc2Cl)c1C(=O)O [Compound A216, 2-(5-chloropyridin-3-yl)-1-(2,5-dichlorobenzyl)-4-(3-hydroxypentane-3-yl)-1H-imidazole-5-carboxylic acid]	* * *
Cc1nc(-c2cccnc2)n(Cc2cc(C(F)(F)F)ccc2C(F)(F)F)c1C(=O)O [Compound A46, 1-(2,5-bis(trifluoromethyl)benzyl)-4-methyl-2-(pyridin-3-yl)-1H-imidazole-5-carboxylic acid]	* *
COc1ncccc1-c1nc(C)c(C(=O)O)n1Cc1cc(Cl)ccc1Cl [Compound A162, 1-(2,5-dichlorobenzyl)-2-(2-methoxypyridin-3-yl)-4-methyl-1H-imidazole-5-carboxylic acid]	* *
Cc1nc(Oc2cccnc2)n(Cc2cc(Cl)ccc2Cl)c1C(=O)O [Compound A248, 1-(2,5-dichlorobenzyl)-4-methyl-2-(pyridin-3-yloxy)-1H-imidazole-5-carboxylic acid]	* * *
CCc1nc(-c2cncc(Cl)c2)n(Cc2cc(Cl)ccc2Cl)c1C(=O)O [Compound A151, 2-(5-chloropyridin-3-yl)-1-(2,5-dichlorobenzyl)-4-ethyl-1H-imidazole-5-carboxylic acid]	* * *
O=C(O)c1c(OCC(F)(F)F)nc(-c2cccnc2)n1Cc1cc(Cl)ccc1Cl [Compound A98, 1-(2,5-dichlorobenzyl)-2-(pyridin-3-yl)-4-(2,2,2-trifluoroethoxy)-1H-imidazole-5-carboxylic acid]	* * *
Cc1nc(-c2cncc(F)c2)n(Cc2cccc3ccsc23)c1C(=O)O [Compound A234, 1-(benzo[b]thiophen-7-ylmethyl)-2-(5-fluoropyridin-3-yl)-4-methyl-1H-imidazole-5-carboxylic acid]	* *

Continued, values first:

Inhibitory Activity (IC50 of uric acid transport inhibition)	SMILES
* *	Cc1nc(-c2cccnc2)n(Cc2cccc(Br)c2)c1C(=O)O [Compound A55, 1-(3-bromobenzyl)-4-methyl-2-(pyridin-3-yl)-1H-imidazole-5-carboxylic acid]
* * *	CS(=O)(=O)NC(=O)c1ccc(-c2cccnc2)n1Cc1cccc2ccccc12 [Compound B24, N-(methylsulfonyl)-1-(naphthalen-1-ylmethyl)-2-(pyridin-3-yl)-1H-pyrrole-5-carboxamide]
* *	Cc1nc(-c2cccnc2)n(Cc2csc3cccc(C(F)(F)F)c23)c1C(=O)O [Compound A6, 4-methyl-2-(pyridin-3-yl)-1-((4-(trifluoromethyl)benzo[b]thiophen-3-yl)-methyl)-1H-imidazole-5-carboxylic acid]
* * *	O=C(O)c1c(I)nc(-c2cccnc2)n1Cc1cc(Cl)ccc1Cl [Compound A90, 1-(2,5-dichlorobenzyl)-4-iodo-2-(pyridin-3-yl)-1H-imidazole-5-carboxylic acid]
* * *	CC(C)c1nc(-c2cncc(Cl)c2)n(Cc2cccc3ccccc23)c1C(=O)O [Compound A144, 2-(5-chloropyridin-3-yl)-4-isopropyl-1-(naphthalen-1-ylmethyl)-1H-imidazole-5-carboxylic acid]
* *	Cc1ccc(Cn2c(-c3cccnc3)nc(Cl)c2C(=O)O)c2ccccc12 [Compound A23, 4-chloro-1-((4-methylnaphthalen-1-yl)methyl)-2-(pyridin-3-yl)-1H-imidazole-5-carboxylic acid]
* *	O=C(O)c1c(-c2cccnc2)nc(-c2cccnc2)n1Cc1cc(Cl)ccc1Cl [Compound A94, 1-(2,5-dichlorobenzyl)-2,4-di(pyridin-3-yl)-1H-imidazole-5-carboxylic acid]
* *	Cc1nc(-c2cncc(Oc3ccccc3)c2)n(Cc2cccc3ccccc23)c1C(=O)O [Compound A130, 4-methyl-1-(naphthalen-1-ylmethyl)-2-(5-phenoxypyridin-3-yl)-1H-imidazole-5-carboxylic acid]
* * *	O=C(O)c1ccc(-c2cncc(F)c2)n1Cc1cccc2ccsc12 [Compound B22, 1-(benzo[b]thiophen-7-ylmethyl)-2-(5-fluoropyridin-3-yl)-1H-pyrrole-5-carboxylic acid]
* *	O=C(O)c1c(C2CC2)nc(-c2cccnc2)n1Cc1cccc2ccsc12 [Compound A82, 1-(benzo[b]thiophen-7-ylmethyl)-4-cyclopropyl-2-(pyridin-3-yl)-1H-imidazole-5-carboxylic acid]
* * *	O=C(O)c1ccc(-c2cccnc2)n1Cc1csc2cccc(C(F)(F)F)c12 [Compound B9, 2-(pyridin-3-yl)-1-((4-(trifluoromethyl)benzo[b]thiophen-3-yl)methyl)-1H-pyrrole-5-carboxylic acid]
* * *	CCc1nc(-c2cncc(Cl)c2)n(Cc2cccc3ccccc23)c1C(=O)O [Compound A149, 2-(5-chloropyridin-3-yl)-4-ethyl-1-(naphthalen-1-ylmethyl)-1H-imidazole-5-carboxylic acid]
* * *	O=C(NS(=O)(=O)C1CC1)c1ccc(-c2cccnc2)n1Cc1cc(Cl)ccc1Cl [Compound B31, N-(cyclopropylsulfonyl)-1-(2,5-dichlorobenzyl)-2-(pyridin-3-yl)-1H-pyrrole-5-carboxamide]
* * *	Cc1ccc(Cn2c(C(=O)O)ccc2-c2cccnc2)c2ccccc12 [Compound B2, 1-((4-methylnaphthalen-1-yl)methyl)-2-(pyridin-3-yl)-1H-pyrrole-5-carboxylic acid]

Same assay, conditions: HEK 293 cells expressing human URAT1; 14C-labeled uric acid 25 μM; uptake 37° C. for 5 min; read-out: Inhibitory Activity (IC50 of uric acid transport inhibition)

IC50	SMILES
2 to 20 µM	O=C(O)/C=C/c1cnc(-c2cccnc2)n1Cc1cccc2ccccc12 [Compound A259]
2 to 20 µM	Cc1nc(-c2cccnc2)n(Cc2cccc(F)c2)c1C(=O)O [Compound A49]
2 to 20 µM	Cc1ccccc1Cn1c(-c2cccnc2)nc(C)c1C(=O)O [Compound A57]
